Data as given in PubChem BioAssay (NCI).
“And” between values parts separate entries of the source, which are not always exact repeats. Identical values can stand only once.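 Cultured in 96-well plates, cells were exposed to test compound for 48 hours across five concentrations. The concentration for 50% growth inhibition is given as GI50. Definition used: TGI = concentration required for complete inhibition of growth.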

Columns and labels:
Assay in all cases: DTP human tumour cell line panel, 48 h
A498 renal = test system: A498 renal
EKVX NSCLC = test system: EKVX NSCLC
HCT-116 colon = test system: HCT-116 colon
HOP-92 NSCLC = test system: HOP-92 NSCLC
KM12 colon = test system: KM12 colon
OVCAR-5 ovarian = test system: OVCAR-5 ovarian
PC-3 prostate = test system: PC-3 prostate
T-47D breast = test system: T-47D breast

| SMILES | TGI (A498 renal) [µM] | TGI (EKVX NSCLC) [µM] | TGI (HCT-116 colon) | TGI (HOP-92 NSCLC) [µM] | TGI (KM12 colon) | TGI (OVCAR-5 ovarian) [µM] | TGI (PC-3 prostate) [µM] | TGI (T-47D breast) | GI50 (A498 renal) [nM] | GI50 (EKVX NSCLC) [nM] | GI50 (HOP-92 NSCLC) [nM] | GI50 (OVCAR-5 ovarian) [nM] | GI50 (PC-3 prostate) | GI50 (T-47D breast) | GI50 (HCT-116 colon) |
| --- | --- | --- | --- | --- | --- | --- | --- | --- | --- | --- | --- | --- | --- | --- | --- |
| CC(=O)N1C(C(=O)NC2CCCCC2)CSC1c1ccccc1 (stereo unspecified) | > 100 | > 100 | > 100 µM | > 100 | > 100 µM | > 100 | > 100 |  |  |  |  |  |  |  |  |
| COc1cccc(Nc2nc(-c3cccs3)nc3cc(OC)c(OC)cc23)c1 | 48.5 | > 100 | 54 µM | 51.9 | 87.1 µM | > 100 | 92.7 | > 100 µM |  |  |  |  |  |  |  |
| O=C(OCc1ccccc1)N1CCNCCN(C(=O)OCc2ccccc2)CCNCC1 | > 100 | > 100 | 42.9 µM | > 100 | 66.1 µM | > 100 | > 100 | 32.7 µM |  |  |  |  |  |  |  |
| CCOC(=O)N1CCN(Cc2cc(=O)n3ccc(C)cc3n2)CC1 | > 100 | > 100 | > 100 µM | > 100 | > 100 µM | > 100 | > 100 | > 100 µM |  |  |  |  |  |  |  |
| CCOC(=O)Nc1sc2c(c1C#N)CCCC2 | > 100 | > 100 | > 100 µM | > 100 | > 100 µM | > 100 | > 100 |  |  |  |  |  |  |  |  |
| Nc1c(-c2ccc(Cl)c(Cl)c2)c2ccc([N+](=O)[O-])cc2c(=O)n1-c1nc2ccccc2s1 | 24.3 | 46.8 | 12.9 µM | 2.81 | > 100 µM | > 74.2 | > 100 | > 24.9 µM |  |  |  |  |  |  |  |
| Nc1nc(-c2ccccc2)nc2oc(-c3cccs3)nc12 | > 100 | > 100 | > 100 µM | > 100 | > 100 µM | > 100 | > 100 | > 100 µM |  |  |  |  |  |  |  |
| Cc1oc2c(cc(O)c3cc(O)ccc32)c2cccc1-2 | > 100 | > 100 | > 100 µM | > 100 | > 100 µM | > 100 | > 100 | > 100 µM |  |  |  |  |  |  |  |
| CC1=Nc2ccccc2OC(C)=C1N=Nc1ccc2nc(C)[nH]c2c1 | 99.5 | > 100 | > 100 µM | > 100 | > 100 µM | > 100 | > 100 | > 100 µM |  |  |  |  |  |  |  |
| c1ccc2c3[nH]c(c2c1)=Nc1ccc(cc1)-c1nc2cc(ccc2o1)N=c1[nH]c(c2ccccc12)=Nc1ccc2nc(oc2c1)-c1ccc(cc1)N=3 | > 100 | > 100 | > 100 µM |  | > 100 µM | > 100 | > 100 |  |  |  |  |  |  |  |  |
| COc1ccc(C(=C2C=CC=C2)c2ccc(OC)cc2)cc1 |  | > 100 | 84.8 µM | > 100 | > 100 µM | 88.5 | > 100 | 57.7 µM |  |  |  |  |  |  |  |
| CCCCOC(=O)Nc1ccc(S(=O)(=O)Nc2ccccc2Cl)cc1 | 27.8 | 57 | 41.6 µM | 30 | 62.9 µM | 55.4 | 58.4 | 87.1 µM |  |  |  |  |  |  |  |
| O=C(/C=C/c1ccc2c(c1)OCO2)c1ccc(O)cc1 | 38.3 | 30.3 | 26.2 µM | 28.8 |  | 35.1 | 29.4 |  |  |  |  |  |  |  |  |
| O=C1c2cc3c(cc2-c2c1c1ccc(F)cc1c(=O)n2C[C@H](O)[C@@H](O)[C@H](O)CO)OCO3 | 0.262 | 3.05 |  | 0.69 |  | 0.782 | > 100 | 0.15 µM | 120 | 308 | 180 | 222 | 0.205 µM | 0.0229 µM |  |
| COc1ccc(-n2c(C)nc3ccc(NC(=S)Nc4ccccc4)cc3c2=O)cc1 | > 100 | > 100 | > 100 µM |  | > 100 µM | > 100 | > 100 | > 100 µM |  |  |  |  |  |  |  |
| Oc1ccc2c(c1)c1c(n2CCN2CCOCC2)-c2ccccc2CC1 | 52.6 | 92.5 | > 100 µM |  | 35.8 µM | 60.5 | > 100 |  |  |  |  |  |  |  |  |
| S=C(N/N=C(/c1ccccc1)c1ccccn1)N(Cc1ccccn1)Cc1ccccn1 |  | 1.7 | 1.59 µM | 1.45 | 2.31 µM | 3.37 | 1.78 | 2.82 µM |  |  |  |  |  |  |  |
| Cc1cc(Nc2ccc(S(=O)(=O)O)c3cc(S(=O)(=O)O)cc(S(=O)(=O)O)c23)c2ccccc2n1 | > 100 | > 100 | > 100 µM |  | > 100 µM | > 100 | > 100 | > 100 µM |  |  |  |  |  |  |  |
| O=C(NCc1ccccc1)c1n[nH][nH]c1=O |  | > 100 | > 100 µM |  | > 100 µM | > 100 | > 100 | > 100 µM |  |  |  |  |  |  |  |
| N=c1nnc2ccc(Cl)cc2n1O | > 100 | > 100 | > 100 µM |  | > 100 µM | > 100 | > 100 | > 100 µM |  |  |  |  |  |  |  |
| C=CC1(CC/C(=C\[N+](=O)[O-])c2ccc(OC)c(OC)c2)OCC(C)(C)CO1 |  | 40.1 | 71.9 µM | 54.8 | 47.2 µM | 35.2 | 57 | 33.2 µM |  |  |  |  |  |  |  |
| CC1(C)O[C@H]2OC(CO[Si](C)(C)C(C)(C)C)C(N=[N+]=[N-])[C@H]2O1 (stereo partly specified) | 53 | 39.3 | 28.9 µM | 75.9 | 34.2 µM | 35.2 | 37 |  |  |  |  |  |  |  |  |
| Cc1ccc(-c2cc(-c3ccco3)c(C#N)c(=S)n2C2OC(CO)C(O)C(O)C2O)cc1 (stereo unspecified) | > 100 | > 100 | 18.5 µM and > 100 µM |  | 76.9 µM and > 100 µM | > 100 | > 100 | 84.9 µM and > 100 µM |  |  |  |  | 17.4 µM and > 100 µM | 23.6 µM and 53 µM | 4.91 µM and 25.3 µM |
| CC(=O)Oc1cccc2c1C(=O)CCCC2 | > 100 | > 100 | > 100 µM |  | > 100 µM | > 100 | > 100 | > 100 µM |  |  |  |  |  |  |  |
| CCC(=O)NC(Nc1cc(C)on1)(C(F)(F)F)C(F)(F)F | > 100 | > 100 | > 100 µM | > 100 | > 100 µM | > 100 |  | > 100 µM |  |  |  |  |  |  |  |
| Cc1cc(C)nc(NS(=O)(=O)c2ccc(NC(=O)c3ccc4nc5ccccc5c(Nc5ccc(S(N)(=O)=O)cc5)c4c3)cc2)n1 |  | > 100 | > 100 µM | > 100 | > 100 µM | > 100 | > 100 | > 100 µM |  |  |  |  |  |  |  |
| COc1cc(S(=O)(=O)Nc2nc(-c3ccc(N4C(=O)C(CC(=O)O)SC4c4cccs4)cc3)cs2)ccc1Cl (stereo unspecified) | > 100 |  | > 100 µM | 89.5 | > 100 µM | > 100 | > 100 | 91.9 µM |  |  |  |  |  |  |  |
